Data from US9815850B2, “Compounds, compositions and methods” (Denali Therapeutics Inc., priority 2016, dated 2017).
Where two headings read alike, the source gives them in different places. Each block holds one molecule with its values, some of them ahead of it.

What was measured:
[1] = test system: human cryopreserved hepatocytes; assay: Metabolic stability (hepatocytes); type: in vitro ADME; settings: well-stirred model
Description: Hepatic clearance is expressed as mL/min/kg.

[2] = target: P-gp (P-glycoprotein, MDR1) (Homo sapiens (Human), UniProt P08183); assay: MDCKII-MDR1 permeability, efflux ratio; type: in vitro ADME; settings: dog, MDCK-MDR1, pH 7.4, MDCKII-MDR1 cells, read-out: ER MDR1
Chain of P-gp (P-glycoprotein, MDR1) (P08183 whole entry): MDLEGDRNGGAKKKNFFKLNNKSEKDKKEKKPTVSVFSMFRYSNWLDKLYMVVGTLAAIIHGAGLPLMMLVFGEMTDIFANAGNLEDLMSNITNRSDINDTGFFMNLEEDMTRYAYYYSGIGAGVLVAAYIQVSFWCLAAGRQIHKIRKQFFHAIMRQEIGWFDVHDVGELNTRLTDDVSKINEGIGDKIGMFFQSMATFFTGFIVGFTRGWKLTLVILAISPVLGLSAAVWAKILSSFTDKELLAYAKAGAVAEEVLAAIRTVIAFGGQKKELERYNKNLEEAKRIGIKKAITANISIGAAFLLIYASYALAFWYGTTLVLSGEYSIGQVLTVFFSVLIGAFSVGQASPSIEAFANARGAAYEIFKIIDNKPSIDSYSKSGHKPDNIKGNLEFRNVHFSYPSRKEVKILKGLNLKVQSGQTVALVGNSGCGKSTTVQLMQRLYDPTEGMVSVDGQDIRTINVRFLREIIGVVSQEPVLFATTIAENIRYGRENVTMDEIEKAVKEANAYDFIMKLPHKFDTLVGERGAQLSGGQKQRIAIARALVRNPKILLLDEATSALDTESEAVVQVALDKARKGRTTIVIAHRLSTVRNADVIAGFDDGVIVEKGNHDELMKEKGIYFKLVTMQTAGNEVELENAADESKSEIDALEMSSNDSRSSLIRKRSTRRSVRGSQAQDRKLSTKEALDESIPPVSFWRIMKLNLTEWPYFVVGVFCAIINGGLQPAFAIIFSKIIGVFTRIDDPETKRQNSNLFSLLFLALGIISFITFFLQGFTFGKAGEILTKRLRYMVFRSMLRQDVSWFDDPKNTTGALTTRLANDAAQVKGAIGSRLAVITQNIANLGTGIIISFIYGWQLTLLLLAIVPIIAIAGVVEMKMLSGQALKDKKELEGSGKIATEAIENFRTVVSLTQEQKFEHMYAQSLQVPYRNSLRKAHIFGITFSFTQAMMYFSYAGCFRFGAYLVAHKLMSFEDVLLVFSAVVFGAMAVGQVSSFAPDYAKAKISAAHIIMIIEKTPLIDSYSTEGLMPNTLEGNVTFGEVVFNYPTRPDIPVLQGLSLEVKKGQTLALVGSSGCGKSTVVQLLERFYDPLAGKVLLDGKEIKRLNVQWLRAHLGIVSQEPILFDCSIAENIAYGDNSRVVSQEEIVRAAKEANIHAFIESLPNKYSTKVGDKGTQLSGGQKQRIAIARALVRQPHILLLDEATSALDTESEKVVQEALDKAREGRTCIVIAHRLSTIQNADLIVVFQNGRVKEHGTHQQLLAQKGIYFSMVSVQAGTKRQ
Protocol: The blood brain barrier (BBB) separates circulating blood from the extracellular fluid of the central nervous system (CNS). The passive membrane permeability (Papp) and the P-gp (P-glycoprotein) substrate efflux potential were determined using the MDCKII-MDR1 cell line as an in vitro model of the effective permeability of a compound through the BBB. A bidirectional assay (Apical to Basolateral (A→B) and Basolateral to Apical (B→A)), in the absence and in the presence of GF120918 (a P-gp inhibitor) was conducted using pre-plated MDCKII-MDR1 cells (Corning HTS Transwell-96) obtained from SOLVO Biotechnology. The assay was run at 3 μM for 90 min (minutes) in triplicate using a HBSS+12.5 mM HEPES pH 7.4 transport buffer. Following incubation of samples from donor and receiver, wells were removed and measured by LC-MS/MS. Samples were extracted by protein precipitation with acetonitrile containing an appropriate internal standard (IS) having a known mass and molecular weight. The precipitate was centrifuged for 10 min at 3000 rpm (revolutions per minute). The supernatants were then collected, diluted if necessary, and injected on to the LC-MS/MS system. […] Papp (apparent permeability expressed in nm/sec [nanometer/second]) values were calculated according to the following equation: […]
Where dQ/dt is the permeability rate, C0 is the initial concentration in the donor solution (expressed as IS ratio), A and B are the surface areas of the filter (the surface area of the cell monolayer).
Monolayer efflux ratios (ER) were derived using the following equation: […]

[3] = in vivo
[4] = test system: FADD-deficient Jurkat cells; assay: Cellular necroptosis assay (human TNFα-induced); type: cell-based; settings: read-out: Cell IC50
Protocol: Ten concentrations of the test compounds were assessed in duplicate in two different test occasions. […] The day of the experiment cells were diluted to a density of […] (5,000 cells/well) with culture medium and added (40 μL) into the 384-well plate containing 0.2 μL/well of test compounds and reference compounds (CRCs) (200×). Cell plates were then incubated at 37° C.-5% CO2. After 30 min, necroptotic cell death was induced with human TNFα (10 ng/mL) and cell viability was evaluated 48 h later by measuring cellular ATP levels using CellTiter-Glo® kit (Promega). Luminescence was read by using Victor V (Perkin Elmer) multilabel plate reader.

[5] = target: GST-hRIPK1 (8-327) (Homo sapiens (Human), UniProt Q13546); assay: Fluorescent Polarization Binding (FP Binding) assay; settings: 10 nM GST-hRIPK1 (8-327), 5 nM fluorescent labeled ligand; read-out: FP IC50
Chain of GST-hRIPK1 (8-327) (Q13546 8-327): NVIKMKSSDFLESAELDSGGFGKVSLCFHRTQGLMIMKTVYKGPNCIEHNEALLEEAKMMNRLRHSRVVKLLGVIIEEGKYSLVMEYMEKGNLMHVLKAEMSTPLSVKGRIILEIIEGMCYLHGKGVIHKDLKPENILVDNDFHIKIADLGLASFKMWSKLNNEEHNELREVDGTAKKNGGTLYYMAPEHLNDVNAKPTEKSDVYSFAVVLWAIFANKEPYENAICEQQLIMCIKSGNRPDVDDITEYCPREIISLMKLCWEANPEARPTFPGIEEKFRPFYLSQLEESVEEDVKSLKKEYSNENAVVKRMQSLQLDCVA
Protocol: Fluorescent Polarization Binding (FP Binding) assay (Berger S. B. et al. […] Maki J. L. et al. […] Test Compounds were serially diluted in DMSO at 100 fold final concentrations in the assay (1% DMSO final). […] For negative control the enzyme addition was replaced by assay buffer only. After addition of 5 μL of fluorescent labeled ligand at twice the final concentrations in assay buffer, the plate was incubated at RT for 30 min.

[6] = cynomolgus monkey, in vivo
[7] = male, Sprague-Dawley Crl:CD(SD)
[8] = human TNFα 10 ng/mL, viability after 48 h
[9] = Homo sapiens, 48 h, human TNFα 10 ng/mL, viability after 48 h

SMILES: CN1C(=O)[C@@H](NC(=O)c2nnc(Cc3ccccc3)o2)COc2ccccc21 [B, reference compound]
- Human hepatocyte CLhep Avg [1]: 14 mL/min/kg
- efflux ratio at 90 min, 3 μM [2]: 1

SMILES: CN1C(=O)[C@@H](NC(=O)c2cc(C3(c4ccccc4)CC3)on2)COc2ccccc21 [Example 8, (S)-N-(5-methyl-4-oxo-2,3,4,5-tetrahydrobenzo[b][1,4]oxazepin-3-yl)-5-(1-phenylcyclopropyl)isoxazole-3-carboxamide]
- efflux ratio at 90 min, 3 μM [2]: 0.8
- Rat unbound CL [3, 7]: 3700 mL/min/kg
- IC50 [4, 8]: 4 nM

SMILES: CN1C(=O)[C@@H](NC(=O)c2cc(Cc3ccccc3)on2)CC2(CC2)c2ccccc21 [Example 9, (S)-5-benzyl-N-(1-methyl-2-oxo-1,2,3,4-tetrahydrospiro[benzo[b]azepine-5,1′-cyclopropan]-3-yl)isoxazole-3-carboxamide]
- IC50 [4, 8]: 8 nM

SMILES: CN1C(=O)[C@@H](NC(=O)c2nc(Cc3ccccc3)n[nH]2)COc2cccnc21 [Example 42, (S)-5-benzyl-N-(5-methyl-4-oxo-2,3,4,5-tetrahydropyrido[3,2-b][1,4]oxazepin-3-yl)-4H-1,2,4-triazole-3-carboxamide]
- IC50 ([4]; Homo sapiens, 48 h): 0.6 nM

SMILES: CN1C(=O)[C@@H](NC(=O)c2cc(C3(c4ccccc4)CC3)on2)COc2cccnc21 [Example 77, (S)—N-(5-methyl-4-oxo-2,3,4,5-tetrahydropyrido[3,2-b][1,4]oxazepin-3-yl)-5-(1-phenylcyclopropyl)isoxazole-3-carboxamide]
- Human hepatocyte CLhep Avg [1]: 19 mL/min/kg
- IC50 [5]: 0.1 to 1000 nM
- efflux ratio at 90 min, 3 μM [2]: 0.6
- Rat unbound CL [3, 7]: 595 mL/min/kg

SMILES: CN1C(=O)[C@@H](NC(=O)c2cc(Cc3ccccc3)on2)COc2cccnc21 [Example 142, (S)-5-Benzyl-N-(5-methyl-4-oxo-2,3,4,5-tetrahydropyrido[3,2-b][1,4]oxazepin-3-yl)isoxazole-3-carboxamide]
- IC50 [4, 9]: 0.7 nM

SMILES: CN1C(=O)[C@@H](NC(=O)c2nnc(Cc3cccc(C#N)c3)[nH]2)COc2cccnc21 [Example 161, (S)-5-(3-cyanobenzyl)-N-(5-methyl-4-oxo-2,3,4,5-tetrahydropyrido[3,2-b][1,4]oxazepin-3-yl)-4H-1,2,4-triazole-3-carboxamide]
- IC50 [4, 9]: 2 nM

SMILES: CN1C(=O)[C@@H](NC(=O)c2nnc(Cc3cccc(C#N)c3)[nH]2)COc2ccccc21 [Example 163, (S)-5-(3-cyanobenzyl)-N-(5-methyl-4-oxo-2,3,4,5-tetrahydrobenzo[b][1,4]oxazepin-3-yl)-4H-1,2,4-triazole-3-carboxamide]
- IC50 [4, 9]: 1 nM

SMILES: CN1C(=O)[C@@H](NC(=O)c2ncn(Cc3cccc(C#N)c3)n2)COc2cccnc21 [Example 171, (S)-1-(3-cyanobenzyl)-N-(5-methyl-4-oxo-2,3,4,5-tetrahydropyrido[3,2-b][1,4]oxazepin-3-yl)-1H-1,2,4-triazole-3-carboxamide]
- Rat unbound CL [3, 7]: 32 mL/min/kg

SMILES: C[C@H]1Oc2ncccc2N(C)C(=O)[C@H]1NC(=O)c1nnc(Cc2ccccc2)o1 [Example 193, 5-benzyl-N-((3S,4R)-1,4-dimethyl-2-oxo-1,2,3,4-tetrahydropyrido[2,3-b][1,4]oxazepin-3-yl)-1,3,4-oxadiazole-2-carboxamide]
- IC50 [4, 9]: 210 nM

SMILES: CN1C(=O)[C@@H](NC(=O)c2cn(Cc3ccccc3)nn2)[C@H]2C[C@H]2c2nccnc21 [Example 195, 1-benzyl-N-((7S,7aS,8aR)-5-methyl-6-oxo-5,6,7,7a,8,8a-hexahydrocyclopropa[d]pyrazino[2,3-b]azepin-7-yl)-1H-1,2,3-triazole-4-carboxamide]
- IC50 [4, 9]: 16 nM

SMILES: CN1C(=O)[C@@H](NC(=O)c2cc(Cc3ccccc3)on2)[C@H]2C[C@H]2c2nccnc21 [Example 197, 5-benzyl-N-((7S,7aS,8aR)-5-methyl-6-oxo-5,6,7,7a,8,8a-hexahydrocyclopropa[d]pyrazino[2,3-b]azepin-7-yl)isoxazole-3-carboxamide]
- IC50 [4, 9]: 3 nM

SMILES: [2H]C([2H])([2H])N1C(=O)[C@@H](NC(=O)c2nn(Cc3ccccc3)cc2F)[C@@H](C)Oc2ncccc21 [Example 205, 1-benzyl-N-((3S,4R)-1-trideuteriomethyl-4-methyl-2-oxo-1,2,3,4-tetrahydropyrido[2,3-b][1,4]oxazepin-3-yl)-4-fluoro-1H-pyrazole-3-carboxamide]
- IC50 [4, 9]: 21 nM

More lines, main results first:

- Human hepatocyte CLhep Avg [1]: 19 mL/min/kg
- efflux ratio at 90 min, 3 μM [2]: 0.9
SMILES: CN1C(=O)[C@@H](NC(=O)c2cc(Cc3ccccc3)on2)COc2ccccc21 [C, reference compound]

- Rat unbound CL [3]: 188 mL/min/kg
SMILES: CN1C(=O)[C@@H](NC(=O)c2nnc(Cc3ccccc3)[nH]2)[C@H]2C[C@H]2c2ccccc21 [Example 46A]

- efflux ratio at 90 min, 3 μM [2]: 1.4
- Rat unbound CL [3, 7]: 420 mL/min/kg
SMILES: C[C@H]1Oc2cccnc2N(C)C(=O)[C@H]1NC(=O)c1nn(Cc2ccccc2)cc1F [Example 92, 1-benzyl-N-((2R,3S)-2,5-dimethyl-4-oxo-2,3,4,5-tetrahydropyrido[3,2-b][1,4]oxazepin-3-yl)-4-fluoro-1H-pyrazole-3-carboxamide]
- IC50 [4, 9]: 0.7 nM

- efflux ratio at 90 min, 3 μM [2]: 14
- Cyno unbound CL ([6]; male): 40 mL/min/kg
- Rat unbound CL [3, 7]: 44 mL/min/kg
SMILES: C[C@H]1Oc2cccnc2N(C)C(=O)[C@H]1NC(=O)c1nnc(Cc2ccccc2)[nH]1 [Example 94, 5-benzyl-N-((2R,3S)-2,5-dimethyl-4-oxo-2,3,4,5-tetrahydropyrido[3,2-b][1,4]oxazepin-3-yl)-4H-1,2,4-triazole-3-carboxamide]
- IC50 [4, 9]: 6 nM

- efflux ratio at 90 min, 3 μM [2]: 1.1
- Cyno unbound CL ([6]; male): 140 mL/min/kg
- Rat unbound CL [3, 7]: 100 mL/min/kg
SMILES: C[C@H]1Oc2cccnc2N(C)C(=O)[C@H]1NC(=O)c1nnc(Cc2ccccc2)o1 [Example 134, 5-Benzyl-N-((2R,3S)-2,5-dimethyl-4-oxo-2,3,4,5-tetrahydropyrido[3,2-b][1,4]oxazepin-3-yl)-1,3,4-oxadiazole-2-carboxamide]
- IC50 [4, 9]: 3 nM

- efflux ratio at 90 min, 3 μM [2]: 1
- Cyno unbound CL ([6]; male): 39 mL/min/kg
- Rat unbound CL [3, 7]: 61 mL/min/kg
SMILES: CN1C(=O)[C@@H](NC(=O)c2nnc(Cc3ccccc3)o2)COc2cccnc21 [Example 146, (S)-5-benzyl-N-(5-methyl-4-oxo-2,3,4,5-tetrahydropyrido[3,2-b][1,4]oxazepin-3-yl)-1,3,4-oxadiazole-2-carboxamide]
- IC50 [4, 9]: 0.7 nM

- Rat unbound CL [3, 7]: 65 mL/min/kg
SMILES: C[C@H]1Oc2cccnc2N(C)C(=O)[C@H]1NC(=O)c1ncn(Cc2cccc(C#N)c2)n1 [Example 172, 1-(3-cyanobenzyl)-N-((2R,3S)-2,5-dimethyl-4-oxo-2,3,4,5-tetrahydropyrido[3,2-b][1,4]oxazepin-3-yl)-1H-1,2,4-triazole-3-carboxamide]
- IC50 [4, 9]: 1 nM

- Cyno unbound CL [6]: 58 mL/min/kg
- Rat unbound CL [3]: 55 mL/min/kg
SMILES: CN1C(=O)[C@@H](NC(=O)c2nnc(Cc3ccccc3)o2)[C@H]2C[C@H]2c2nccnc21 [Example 177A]

- IC50 [5]: 0.1 to 1000 nM
SMILES: CN1C(=O)[C@@H](NC(=O)c2nnc(Cc3ccccc3)o2)CCc2ccccc21 [Example 225, (S)-5-benzyl-N-(1-methyl-2-oxo-2,3,4,5-tetrahydro-1H-benzo[b]azepin-3-yl)-1,3,4-oxadiazole-2-carboxamide]

- IC50 [5]: 0.1 to 1000 nM
SMILES: CN1C(=O)[C@@H](NC(=O)c2ncc(Cc3ccccn3)o2)[C@H]2C[C@H]2c2nccnc21 [Example 226]

- IC50 [5]: 0.1 to 1000 nM
SMILES: CN1C(=O)[C@@H](NC(=O)c2ncc(C(F)(F)c3ccccc3)o2)[C@H]2C[C@H]2c2nccnc21 [Example 227]
